Consider four compounds from ChEMBL document CHEMBL2429749, “Trichinenlides A-T, mexicanolide-type limonoids from Trichilia sinensis” (J Nat Prod, 2013).

As usually defined, the IC50 is the concentration that inhibits the measured activity by half.

The subject of the test is RAW264.7. As to the kind of experiment: Antiinflammatory activity in mouse RAW264.7 cells assessed as inhibition of LPS-induced nitric oxide production preincubated for 2 hrs followed by LPS challenge measured after 24 hrs. Type of test: functional, cell-based.
For the compound `C/C=C/C(=O)O[C@H]1C(C)(C)[C@H](CC(=O)OC)[C@]2(C)C(=O)[C@@]1(O)[C@H]1O[C@]13[C@@H]1CC(=O)O[C@@H](c4ccoc4)[C@]1(C)CC[C@H]23`, the IC50 was found to be 3.33 µM.
Consider `COc1cc(/C=C/C(=O)CC(=O)/C=C/c2ccc(O)c(OC)c2)ccc1O` [CURCUMIN], for which the IC50 is 5 µM.
With `C/C=C/C(=O)O[C@H]1C(C)(C)[C@H](CC(=O)OC)[C@]2(C)C(=O)[C@@]1(O)[C@H]1O[C@@]13C2=CC[C@]1(C)[C@H]3CC(=O)O[C@H]1c1ccoc1` [TRICHINENLIDE B], the 50% inhibitory concentration (IC50) is 2.85 µM.
Take `C/C=C/C(=O)O[C@H]1C(C)(C)[C@H](C(O)C(=O)OC)[C@]2(C)C(=O)[C@@]1(O)[C@H]1O[C@@]13C2=CC[C@]1(C)[C@H]3CC(=O)O[C@H]1c1ccoc1` (some centres undefined) [TRICHINENLIDE C]: the 50% inhibitory concentration (IC50) amounted to 1.88 µM.
